Test results as given in ChEMBL document CHEMBL1938342 (J Med Chem, 2011).
The source made the active and inactive calls. The rule behind the calls is not given here.

What was measured:
Mus musculus [1] = assay: Toxicity in mouse 4T1 cells expressing CA9 xenografted BALB/c mouse assessed as weight loss at 30 mg/kg, iv administered on days 11,13,16 and 19; settings: in vivo
Carbonic anhydrase 2 = Carbonic anhydrase 2 (Homo sapiens, UniProt P00918); assay: Inhibition of human full-length cytosolic CA2 after 6 hrs by stopped flow CO2 hydration assay
4T1 = assay: Anticancer activity against mouse 4T1 cells expressing CA9 xenografted in BALB/c mouse assessed as tumor growth inhibition at 30 mg/kg, iv administered on days 11,13,16 and 19
Carbonic anhydrase 9 = Carbonic anhydrase 9 (Homo sapiens, UniProt Q16790); assay: Inhibition of human recombinant CA9 after 6 hrs by stopped flow CO2 hydration assay
Carbonic anhydrase 12 = Carbonic anhydrase 12 (Homo sapiens, UniProt O43570); assay: Inhibition of human recombinant CA12 after 6 hrs by stopped flow CO2 hydration assay
Carbonic anhydrase 1 = Carbonic anhydrase 1 (Homo sapiens, UniProt P00915); assay: Inhibition of human full-length cytosolic CA1 after 6 hrs by stopped flow CO2 hydration assay
Mus musculus [2] = assay: Toxicity in mouse 4T1 cells expressing […] xenografted BALB/c mouse assessed as mortality at 30 mg/kg, iv administered on days 11,13,16 and 19; format: organism-based; design: dose 30 mg/kg, route intravenous; settings: in vivo

Carbonic anhydrase 12, sequence (O43570 whole entry): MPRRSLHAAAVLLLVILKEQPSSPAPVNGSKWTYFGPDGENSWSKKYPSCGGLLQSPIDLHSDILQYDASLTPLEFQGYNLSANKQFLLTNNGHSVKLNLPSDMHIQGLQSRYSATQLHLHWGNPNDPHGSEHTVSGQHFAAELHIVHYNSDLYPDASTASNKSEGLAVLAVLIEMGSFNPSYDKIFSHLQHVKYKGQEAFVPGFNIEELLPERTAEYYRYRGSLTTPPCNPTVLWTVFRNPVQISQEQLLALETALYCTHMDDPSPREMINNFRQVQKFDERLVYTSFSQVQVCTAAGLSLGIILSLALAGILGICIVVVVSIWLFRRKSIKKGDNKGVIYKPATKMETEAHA
Carbonic anhydrase 1, sequence (P00915 whole entry): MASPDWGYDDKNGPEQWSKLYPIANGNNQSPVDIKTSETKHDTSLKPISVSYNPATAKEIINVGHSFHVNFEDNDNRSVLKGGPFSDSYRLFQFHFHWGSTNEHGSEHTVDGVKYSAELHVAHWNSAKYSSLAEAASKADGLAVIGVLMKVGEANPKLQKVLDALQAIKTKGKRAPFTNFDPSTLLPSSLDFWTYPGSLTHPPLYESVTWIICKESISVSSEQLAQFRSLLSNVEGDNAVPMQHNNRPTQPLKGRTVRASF

| Compound | Activity (Mus musculus [1]) | Ki (Carbonic anhydrase 2) [nM] | growth inhibition (GI) (4T1) | Ki (Carbonic anhydrase 9) [nM] | Ki (Carbonic anhydrase 12) [nM] | Ki (Carbonic anhydrase 1) [nM] | Activity (Mus musculus [2]) |
| --- | --- | --- | --- | --- | --- | --- | --- |
| Cc1cc(=O)oc2cc(O[C@H]3O[C@H](CO)[C@@H](O)[C@H](O)[C@@H]3O)ccc12 | Non-toxic | > 100000 | Active | 9.2 | 43 | > 100000 | Non-toxic |
| Cc1cc(=O)oc2cc(O[C@@H]3O[C@H](CO)[C@H](O)[C@H](O)[C@H]3O)ccc12 | – | 77000 | – | 93 | 8.5 | 590 | – |
| Cc1cc(=O)oc2cc(O[C@@H]3O[C@H](CO)[C@@H](O)[C@H](O)[C@H]3O)ccc12 | – | > 100000 | – | 370 | 54 | 1000 | – |
| Cc1cc(=O)oc2cc(O[C@@H]3O[C@H](CO[C@H]4O[C@H](CO)[C@H](O)[C@H](O)[C@H]4O)[C@@H](O)[C@H](O)[C@H]3O)ccc12 | – | 590 | – | 820 | 101 | 880 | – |
| Cc1cc(=O)oc2cc(O)ccc12 [HYMECROMONE] | – | > 100000 | – | 560 | 8100 | > 100000 | – |
| Cc1cc(=O)oc2cc(O[C@@H]3O[C@@H](C)[C@H](O)[C@@H](O)[C@H]3O)ccc12 | – | > 100000 | – | 201 | 184 | > 100000 | – |
